Where only a bound is given, the exact number is not on record here.

The target in one data set is T1, MMP-8 (Homo sapiens, UniProt P22894).
T1 construct: purchased AnaSpec (Fremont, CA, USA)
The experiment in a line: MMP selectivity assay (SensoLyte 520 Generic MMP Activity Kit). The note with it: read-out: Percent inhibition at 100 µM, MMP-8, 100 µM. Format: biochemical. The source says:
(§1) Given that the novel inhibitors contain a free thiol as a strong zinc binding group, we analyzed the selectivity of the diastereomeric mixtures 11 and 12 on six human matrix metalloproteases (MMPs) as putative off-targets.[53] […] Furthermore, we tested the impact of 11 and 12 on bacterial viability to ensure that these compounds are antivirulence agents and not antibiotics. […]
(§2) Selectivity and toxicity assays
(§3) Human MMPs -1, -2, -3, -7, -8 and -14 along with the SensoLyte 520 Generic MMP Activity
(§4) Kit*Fluorimetric* were purchased from AnaSpec (Fremont, CA, USA). The inhibition assay

A further data set deals with T2, MMP-14 (Homo sapiens, UniProt P50281).
T2 construct: purchased AnaSpec (Fremont, CA, USA)
Described as above. Format: biochemical. The note with it: read-out: Percent inhibition at 100 µM, MMP-14, 100 µM.
Text: as §1, §2, §3, §4

Another data set addresses T3, MMP-2 (Homo sapiens, UniProt P08253).
T3 construct: purchased AnaSpec (Fremont, CA, USA)
The data set is described as above. The note with it: read-out: Percent inhibition at 100 µM, MMP-2, 100 µM. Type of data set: biochemical.
Text: as §1, §2, §3, §4

Another data set concerns the target T4, MMP-7 (Homo sapiens, UniProt P09237).
T4 construct: purchased AnaSpec (Fremont, CA, USA)
The data set is described as above. Type of data set: biochemical. The note with it: read-out: Percent inhibition at 100 µM, MMP-7, 100 µM.
Text: as §1, §2, §3, §4

The target of the next data set is T5, MMP-1 (Homo sapiens, UniProt P03956).
T5 construct: purchased AnaSpec (Fremont, CA, USA)
The data set is described as above. Format: biochemical. The note with it: read-out: Percent inhibition at 100 µM, MMP-1, 100 µM.
Text: as §1, §2, §3, §4

Another data set deals with T6, MMP-3 (Homo sapiens, UniProt P08254).
T6 construct: purchased AnaSpec (Fremont, CA, USA)
The description is as above. The note with it: read-out: Percent inhibition at 100 µM, MMP-3, 100 µM. Type of data set: biochemical.
Text: as §1, §2, §3, §4

The next data set concerns the target T7, LasB (Pseudomonas aeruginosa, UniProt Q02RJ6).
T7 construct: P. aeruginosa PA14 culture supernatant; made in house; host or cells: native secreted enzyme purified from P. aeruginosa PA14 culture supernatant (not recombinant)
Description: FRET-based in vitro LasB inhibition (proteolysis) assay. Format: biochemical, P. aeruginosa PA14. The method, then:
The LasB activity of the thiol derivatives 11, 12, 17, 18, 24 and 25 was tested using a functional FRET-based in vitro proteolysis assay (Fig. 4A). […]
(§5) Expression and purification of LasB and LecA
LecA was expressed recombinantly using E. coli pET25-pail, whereas LasB was isolated from P. aeruginosa PA14 culture supernatant as described previously. 1,2 […]
In vitro inhibition assay for LasB
The in vitro inhibition assay was performed as described previously,2 using purified LasB (final concentration 0.3 nM), the fluorogenic substrate 2-aminobenzoyl-Ala-Gly-Leu-Ala-4-nitrobenzylamide (purchased from Peptides International (Louisville, KY, USA) or Vivitide, LLC (Gardner, MA, USA), final concentration 150 µM)) in assay buffer (50 mM Tris, pH 7.2, 2.5 mM CaCl2, 0.075% Pluronic F-127, 5% DMSO). Fluorescence was measured using a CLARIOstar plate reader (BMG Labtech, Ortenberg, Germany). IC50 values were calculated using GraphPad Prism 8 (GraphPad Software, San Diego, CA, USA) from at least three independent experiments performed in duplicate.

Data set [1] relates to Pseudomonas aeruginosa PA14. Description: Antibacterial activity (MIC, ESCMID guidelines). Type of data set: cell-based. The note with it: for MIC: Pseudomonas aeruginosa, PA14; for antimicrobial activity (bacterial viability): up to 100 μM. The method, then:
as §1
(§6) Selectivity and toxicity assays […]
Antimicrobial activity against P. aeruginosa PA14 was tested using ESCMID guidelines and […]

The next data set concerns HEK293. Description: Cytotoxicity MTT assay. Format: cell-based, human. The note with it: HEK293, at 100 μM. The method, then:
as §6
(§7) Cytotoxicity on human liver (HepG2), kidney (HEK293) and lung (A549) cells were performed
(§8) using MTT assay and measuring the optical density (OD) photometrically at 570 nm in a […]
For orientation: Tetrazolium assays rely on reduction of a dye to a coloured formazan, in cell work by metabolically active cells.

The next data set relates to HepG2. Description: Cytotoxicity MTT assay. Format: cell-based, human. The note with it: HepG2, at 100 μM. The method, then: as §6, §7, §8
Data set [2] can be described thus: Cytotoxicity MTT assay. The note with it: human. Type of data set: cell-based, human. The method, then: as §6, §7, §8
The next data set deals with T8, LecA (Pseudomonas aeruginosa, UniProt Q05097).
T8 construct: made in house; host or cells: E. coli (plasmid pET25-pail)
Description: Competitive binding assay for LecA based on fluorescence polarization. Also noted: species or system P. aeruginosa. The method, then:
The four thiols 17, 18, 24 and 25 as well as three disulfides 26a, 26b and 27 were then evaluated for their activity against LecA using a competitive binding assay based on fluorescence polarization (Fig. 4B). […]
as §5
LecA was expressed recombinantly using E. coli pET25-pail, whereas LasB was isolated from P. aeruginosa PA14 culture supernatant as described previously. 1,2
LecA labeling with fluorescein was performed in analogy to Sommer et al. 3 and Beshr et al.4 To this end fluorescein isothiocyanate (FITC) was freshly dissolved in carbonate-bicarbonate buffer with pH of 9.3 at a concentration of 3 mg mL-1. Subsequently, 66 µL of this FITC solution was combined with 1.4 mL of LecA at a concentration of 60 µM in carbonate-bicarbonate buffer, pH 9.3. The resulting mixture was then incubated at 25 °C with shaking at 500 rpm for 1 hour. Then, extensive washing with PBS/Ca2+ in a 5 kDa molecular weight cutoff centrifugal concentrator was performed to remove excess dye and buffer the labelled protein. […]
Competitive binding assay for LecA
The procedure for the fluorescence polarization-based competitive binding assay for LecA was performed as reported by Joachim et al. with modifications. 1 The assay was performed in TBS/Ca2+ buffer (20 mM Tris, 137 mM NaCl, 2.6 mM KCl at pH 7.4 supplemented with 1 mM CaCl 2 and contained 5% DMSO). The final protein concentration in the assay was 5 µM for LecA. Fluorescence intensities were recorded on a PheraStar FS plate reader (BMG Labtech GmbH, Germany) and polarization was calculated using MARS Data Analysis (BMG Labtech).
IC50 values were obtained from a four-parameter curve-fitting procedure. Averages and standard deviations were calculated from at least three independent experiments of technical
In general terms: Polarisation of emitted light reports the rotation of a fluorescent probe.

Data set [3] can be described thus: Cytotoxicity MTT assay. Type of data set: cell-based, human. The note with it: human, A549 cells (lung). The method, then:
as §6
(§9) Cytotoxicity on human liver (HepG2), kidney (HEK293) and lung (A549) cells were performed using MTT assay and measuring the optical density (OD) photometrically at 570 nm in a FLUOstar Omega plate reader (BMG labtech, Ortenberg, Germany) as described previously. 6 […]
(§10) The A549 cell line, derived from human lung adenocarcinoma, was grown in Dulbecco's Modified Eagle Medium (DMEM) supplemented with 10% Fetal Bovine Serum (FBS) and 1% penicillin-streptomycin. […]

The next data set relates to A549. Description: Cytotoxicity MTT assay. Format: cell-based, human. The note with it: A549, at 100 μM. The method, then:
as §6, §9, §10

T4 sequence (P09237 95-267): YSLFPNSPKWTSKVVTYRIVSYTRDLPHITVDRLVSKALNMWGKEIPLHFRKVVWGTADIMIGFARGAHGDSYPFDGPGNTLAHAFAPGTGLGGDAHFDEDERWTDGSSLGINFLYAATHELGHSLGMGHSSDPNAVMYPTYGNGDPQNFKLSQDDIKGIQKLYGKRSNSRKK
T8 sequence (Q05097 whole entry): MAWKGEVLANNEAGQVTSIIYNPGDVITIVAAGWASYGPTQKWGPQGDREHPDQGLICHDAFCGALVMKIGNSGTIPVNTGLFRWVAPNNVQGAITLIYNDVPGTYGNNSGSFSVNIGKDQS
T5 sequence (P03956 100-469): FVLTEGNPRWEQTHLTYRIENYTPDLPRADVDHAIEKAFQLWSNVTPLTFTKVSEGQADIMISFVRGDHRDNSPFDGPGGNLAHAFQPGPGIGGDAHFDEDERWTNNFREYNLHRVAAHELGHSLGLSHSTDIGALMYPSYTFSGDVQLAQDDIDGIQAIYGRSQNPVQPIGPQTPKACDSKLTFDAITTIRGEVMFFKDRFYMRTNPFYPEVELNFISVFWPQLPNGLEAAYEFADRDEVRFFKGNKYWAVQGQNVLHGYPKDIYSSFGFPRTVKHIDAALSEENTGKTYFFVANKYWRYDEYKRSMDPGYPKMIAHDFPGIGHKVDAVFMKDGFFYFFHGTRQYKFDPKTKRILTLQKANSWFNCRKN
T6 sequence (P08254 100-477): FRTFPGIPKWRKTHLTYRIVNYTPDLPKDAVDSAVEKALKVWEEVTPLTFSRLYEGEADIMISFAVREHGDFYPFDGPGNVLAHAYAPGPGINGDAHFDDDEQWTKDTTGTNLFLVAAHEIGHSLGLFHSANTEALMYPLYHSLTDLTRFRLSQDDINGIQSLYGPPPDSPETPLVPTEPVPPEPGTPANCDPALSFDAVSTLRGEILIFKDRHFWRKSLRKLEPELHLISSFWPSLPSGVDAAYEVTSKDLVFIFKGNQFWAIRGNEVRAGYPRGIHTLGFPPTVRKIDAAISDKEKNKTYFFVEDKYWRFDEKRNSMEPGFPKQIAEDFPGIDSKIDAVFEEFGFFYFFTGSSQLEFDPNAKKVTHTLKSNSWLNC
T3 sequence (P08253 110-660): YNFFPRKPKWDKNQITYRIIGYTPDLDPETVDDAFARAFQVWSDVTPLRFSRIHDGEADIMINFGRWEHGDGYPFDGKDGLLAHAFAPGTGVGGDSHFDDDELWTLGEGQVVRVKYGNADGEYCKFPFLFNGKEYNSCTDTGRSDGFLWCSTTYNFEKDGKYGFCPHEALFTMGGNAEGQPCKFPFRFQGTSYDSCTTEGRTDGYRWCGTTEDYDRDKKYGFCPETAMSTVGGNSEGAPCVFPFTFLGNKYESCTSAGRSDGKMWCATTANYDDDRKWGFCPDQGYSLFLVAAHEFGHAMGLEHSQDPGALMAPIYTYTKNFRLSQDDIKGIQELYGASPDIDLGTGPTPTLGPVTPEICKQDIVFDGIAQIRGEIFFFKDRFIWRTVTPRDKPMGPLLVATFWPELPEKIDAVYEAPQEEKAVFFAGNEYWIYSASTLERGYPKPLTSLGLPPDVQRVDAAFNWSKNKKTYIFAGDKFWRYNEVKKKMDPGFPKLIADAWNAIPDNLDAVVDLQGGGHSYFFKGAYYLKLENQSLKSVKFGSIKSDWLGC
T1 sequence (P22894 101-467): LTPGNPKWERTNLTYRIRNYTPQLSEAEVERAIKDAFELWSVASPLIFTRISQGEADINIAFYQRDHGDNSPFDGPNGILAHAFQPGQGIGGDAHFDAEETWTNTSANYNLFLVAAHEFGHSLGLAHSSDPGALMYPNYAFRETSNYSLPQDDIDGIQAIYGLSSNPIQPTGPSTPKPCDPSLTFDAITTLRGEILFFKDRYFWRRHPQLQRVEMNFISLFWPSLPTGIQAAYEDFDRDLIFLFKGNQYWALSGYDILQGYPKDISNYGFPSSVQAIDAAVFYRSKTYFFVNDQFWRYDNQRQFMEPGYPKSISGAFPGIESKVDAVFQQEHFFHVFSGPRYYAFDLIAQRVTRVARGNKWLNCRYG
T7 sequence (Q02RJ6 198-498): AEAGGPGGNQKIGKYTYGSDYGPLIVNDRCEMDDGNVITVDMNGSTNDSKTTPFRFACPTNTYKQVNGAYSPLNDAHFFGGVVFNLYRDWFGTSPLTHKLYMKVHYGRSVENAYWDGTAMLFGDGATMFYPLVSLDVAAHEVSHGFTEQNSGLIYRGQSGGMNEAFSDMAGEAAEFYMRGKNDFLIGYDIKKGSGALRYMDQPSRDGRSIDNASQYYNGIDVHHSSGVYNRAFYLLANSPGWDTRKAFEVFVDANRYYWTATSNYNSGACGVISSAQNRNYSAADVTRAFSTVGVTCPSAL

The term inhibition denotes the share of the control response that was lost under treatment. In general, IC50 refers to the concentration that inhibits the measured activity by half. The low end stands for inhibition by little substance, the high end for a need for much substance. A word on the MIC: it is the smallest concentration in the dilution series that meets the test's criterion for growth inhibition. A lower MIC goes with inhibition by little substance. Take `O=C(Nc1ccc(S[C@@H]2O[C@H](CO)[C@H](O)[C@H](O)[C@H]2O)cc1)C(S)Cc1ccccc1` (some centres unmarked) [Compound 11]: the inhibition at 100 µM is less than 10% at MMP-8; less than 10% at MMP-14; less than 10% at MMP-2; less than 10% at MMP-7; 10 ± 5% on MMP-1; less than 10% at MMP-3. The IC50 on LasB was 0.3 µM; in the data set “Cytotoxicity MTT assay [2]” (HEK293 cells (kidney)) it was greater than 100 µM; in the data set “Cytotoxicity MTT assay [2]” (HepG2 cells (liver)), greater than 100 µM; at LecA it was 18.1 µM; in the data set “Cytotoxicity MTT assay [3]”, greater than 100 µM. For the same molecule, the MIC in [1] is greater than 100 µM. Further, in [1], the “antimicrobial activity (bacterial viability)” value was “No antimicrobial activity was detected”. For the same molecule, the cytotoxicity entry with HEK293, with HepG2 and in the data set with A549 was “no detectable cytotoxicity” in each case.
As for `CC(C)CC(S)C(=O)Nc1ccc(S[C@@H]2O[C@H](CO)[C@H](O)[C@H](O)[C@H]2O)cc1` (some centres unmarked) [Compound 12], the inhibition at 100 µM was less than 10% on MMP-8; 19 ± 5% at MMP-14; 19 ± 3% at MMP-2; less than 10% on MMP-7; less than 10% on MMP-1; less than 10% at MMP-3. The IC50 at LasB is 0.8 µM; in “Cytotoxicity MTT assay [2]” (HEK293 cells (kidney)) it was greater than 100 µM; in “Cytotoxicity MTT assay [2]” (HepG2 cells (liver)), greater than 100 µM; at LecA it was 19.8 µM; in “Cytotoxicity MTT assay [3]” it was greater than 100 µM. Besides, the MIC in data set [1] is greater than 100 µM. The “antimicrobial activity (bacterial viability)” value in data set [1] is reported as “No antimicrobial activity was detected”. Besides, the cytotoxicity entry with HEK293, in the data set on HepG2 and in the data set on A549 was “no detectable cytotoxicity” throughout.
